Measurements taken from PubChem BioAssay AID720668 (NMMLSC, 2013).
Calls of active or inactive are those of the source.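 Rule for the calls: active = MAPK inhibition above 50%; inactive = inhibition below 50%.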

System: ERK MAP kinase activity (EKAR reporter), human
Test: inhibitors of ERK MAP kinase catalytic activity, late-stage follow-up, mechanism study for lytic granule exocytosis inhibitor project, TALL-104 cells, EKAR, flow cytometry, CherryPick01 (AID 720668)
Details: EKAR/pCdc25C flow cytometry, PMA/thapsigargin, at 30 µM, hits give high values

SMILES: COc1ccc(N2C(=O)CC(Sc3nnc(-c4ccccc4)o3)C2=O)cc1 (configuration not stated)
- inhibition: -4% (inactive)

SMILES: O=CNc1cc(-c2ccsc2)cn2c(-c3ccccc3)cnc12
- inhibition: -19% (inactive)

SMILES: CCCCC[C@@H](C)N1C[C@@H](COCc2ccccc2)Oc2cc(N3CC[C@H](N(C)C)C3)ccc2S1(=O)=O
- inhibition: 6.3% (inactive)

SMILES: O=C(Cn1sc2ccccc2c1=O)Nc1ccc(F)cc1
- inhibition: 4.6% (inactive)

SMILES: CCN(CC)CCCNc1ccc(-c2nnc(-c3ccc(OCC(C)C)cc3)o2)cn1
- inhibition: -20.8% (inactive)

SMILES: COc1ccc(-c2cc(NC=O)c3ncc(-c4ccccc4)n3c2)cc1OC
- inhibition: -19.8% (inactive)

SMILES: COc1ccc(-c2cc(NC=O)c3ncc(-c4cccc(OC)c4)n3c2)cc1
- inhibition: -34.2% (inactive)

SMILES: O=c1c2ccccc2sn1-c1ccccc1
- inhibition: -1.6% (inactive)

SMILES: O=C(CN1C(=O)/C(=C\c2cccc(Br)c2)Oc2ccccc21)NCCCN1CCOCC1
- inhibition: -3.6% (inactive)

SMILES: COc1ccc(-n2sc3ccccc3c2=O)cc1
- inhibition: 13.3% (inactive)

SMILES: CC1=NOC(=O)/C1=C/c1ccc(-c2ccc(Cl)cc2)o1
- inhibition: 16.5% (inactive)

SMILES: O=c1c2ccc(F)cc2sn1-c1ccccc1
- inhibition: 21.5% (inactive)

SMILES: O=C(Cn1sc2ccccc2c1=O)NC12CC3CC(CC(C3)C1)C2
- inhibition: 29.8% (inactive)

SMILES: Cc1ccc(S(=O)(=O)n2ccc3c(OCCOCCNCc4ccc(F)cc4)cccc32)cc1
- inhibition: -15.1% (inactive)

SMILES: COC(=O)c1c(NC(=O)c2nc3ccccc3s2)sc2c1CC(C)(C)NC2(C)C
- inhibition: 14.4% (inactive)

SMILES: CCCCC[C@@H](C)N1C[C@H](COCc2ccccc2)Oc2cc(N3CC[C@@H](N(C)C)C3)ccc2S1(=O)=O
- inhibition: -5.3% (inactive)

SMILES: CN(C)CCNC(=O)c1ccc(-c2cn3c(-c4ccc(Oc5ccccc5)cc4)cnc3cn2)cc1
- inhibition: -6.6% (inactive)

SMILES: Cc1ccc(Nc2nc(NCc3ccco3)c3ccccc3n2)cc1
- inhibition: -6.4% (inactive)

SMILES: CCCCC[C@@H](C)N1C[C@@H](COCc2ccccc2)Oc2cc(N3CC[C@@H](N(C)C)C3)ccc2S1(=O)=O
- inhibition: 7.3% (inactive)

SMILES: CC1COCC(C)N1C1=C(Cl)C(=O)c2ccccc2C1=O (configuration not stated)
- inhibition: -52.7% (inactive)

SMILES: CC(C)(c1ccccc1)c1ccc(OCC(O)CNC2CCN(Cc3ccccc3)CC2)cc1 (configuration not stated)
- inhibition: -13.5% (inactive)

SMILES: COc1ccccc1CNc1nc(NCc2ccc(C(C)C)cc2)c2sccc2n1
- inhibition: -9.9% (inactive)
